Source: publication PMC6272846, “Synthesis and p38 Inhibitory Activity of Some Novel Substituted N,N′-Diarylurea Derivatives” (Molecules, 2016)

Tests used:
MAPKAPK2 = assay: Inhibition of MAPKAPK2 in GFP-MAPKAPk2_BHK cell model (nuclear translocation); assay type: cell-based; conditions: GFP-MAPKAPk2_BHK cells
Description: In order to study p38α inhibition in a cell system, we investigated the ability of all compounds to inhibit the phosphorylation of mitogen-activated protein-kinase-activated protein kinase 2 (MAPKAPK2). Each compound was prepared at […] concentrations (1, 3, 10 and 30 nM, 0.1 and 0.3 μM), and the percentages of inhibition were calculated from the numbers of cells after treatment with the different compounds.
GFP-MAPKAPk2_BHK cells were cultured in 96-well plates (2.0 × 10^4/100 μL/well) containing 10% heat-inactivated foetal bovine serum (FBS) and 1 mg/mL G418 at 37 °C in humidified air containing 5% CO2 for 18–24 h. The cells were washed with nutrient solution (100 μL/well) and changed to the compound liquid (100 μL/well). Experiments were set up with the control, and the compound was repeated at each concentration in three wells. The cells were cultured in 96-well plates at 37 °C in humidified air containing 5% CO2 for 90 min. The cells were washed with the dye solution (20 μL/well), and the dyed cells were held for 1 hour at room temperature in the dye liquid. Analysis of nuclear translocation and calculation of the ability of the compounds to inhibit nuclear translocation was performed using the IN Cell Analyzer 1000 Nuclear Trafficking Analysis Module System (GE, Madison, WI, USA). The cultured cells were treated with the obtained compounds in […] concentration grads (1, 3, 10 and 30 nM, 0.1 and 0.3 μM). The inhibitory percentage can be calculated using the amounts of cells after the disposition of the different compounds.

MAPK14/p38α = MAPK14/p38α (Homo sapiens, UniProt Q16539); assay: p38α MAP kinase activity, phosphorylation of ATF-2 (TR-FRET); assay type: biochemical; conditions: enzyme
Description: Kinase reaction buffer was composed of 50 mM HEPES (pH 7.5), 0.01% BRIJ-35, 10 mM MgCl2 and 1 mM EGTA. Prepared MAPK14/p38α in 1× kinase buffer with concentration at 500 ng/mL. A 2-fold serial dilution was performed using 1× kinase buffer from 500 ng/mL using 16 dose points. […] The reaction was started by adding 5 μL of the GFP-ATF2(19–96) substrate and ATP solution into each well of the assay plate. The final starting concentration of MAPK14/p38α was 250ng/ml, and the final GFP-ATF2 and ATP concentrations were 0.4 μM and 90 μM, respectively. The assay plate was sealed and incubated for 1 hour at room temperature (RT). Antibody solution (1 mL) was prepared from 20 mM EDTA and 4 nM Tb-antipATF2 (pThr71) antibody in TR-FRET dilution buffer. Antibody solution (10 μL) was added into each well of the assay plate and mixed gently. The final EDTA concentration was 10 mM, and the final Tb-antipATF2 (pThr71) concentration was 2 nM. The assay plate was sealed and incubated for 30 minutes at RT.
Inhibitor in 0.5% DMSO (2 μL/well) at 5-fold the final assay concentration was added into a 384-well assay plate. […] MAPK14/p38α (4 μL/well) was added to each well of the 384-well assay plate and incubated for 15 min at RT. To start the reaction, substrate GFP-ATF2 (19–96) and ATP (4 μL/well) were added into kinase reaction buffer. […] The resulting TR-FRET emission ratio was plotted against the concentration of inhibitor, and the data fitted to a sigmoidal dose-response curve with a variable slope. The IC50 concentration was calculated from the curve.

MAPK14/p38α, sequence (Q16539 whole entry): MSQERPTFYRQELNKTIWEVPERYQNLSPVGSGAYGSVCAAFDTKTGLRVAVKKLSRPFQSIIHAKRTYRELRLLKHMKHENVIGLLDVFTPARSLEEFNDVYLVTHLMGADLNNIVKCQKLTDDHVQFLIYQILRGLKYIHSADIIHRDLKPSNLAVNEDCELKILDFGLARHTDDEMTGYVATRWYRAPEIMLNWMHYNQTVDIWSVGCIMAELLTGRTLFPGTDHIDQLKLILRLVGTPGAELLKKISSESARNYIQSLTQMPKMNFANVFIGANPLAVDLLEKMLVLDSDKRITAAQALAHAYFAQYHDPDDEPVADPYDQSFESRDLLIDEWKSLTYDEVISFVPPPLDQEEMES

Row | Structure (SMILES) | IC50 (MAPKAPK2; bound given in µM) | further results
1 | CC(C)(C)c1cc(NC(=O)Nc2ccccc2Oc2ccc3[nH]ncc3c2)n(-c2ccc(S(N)(=O)=O)cc2)n1 [29i, 4-(5-(3-(2-((1H-Indazol-5-yl)oxy)phenyl)ureido)-3-(tert-butyl)-1H-pyrazol-1-yl)benzenesulfonamide] | > 10 µM | 
2 | COc1ccc(-n2nc(C(C)(C)C)cc2NC(=O)Nc2ccc(Oc3ccc4[nH]ncc4c3)c3c2OCC=C3)cc1 [26d, 1-(5-((1H-Indazol-5-yl)oxy)-2H-chromen-8-yl)-3-(3-(tert-butyl)-1-(4-methoxyphenyl)-1H-pyrazol-5-yl)urea] |  | IC50 (MAPKAPK2): 0.0698 ± 0.00208 µM
3 | CC(C)(C)c1cc(NC(=O)Nc2ccccc2OCCN2CCOCC2)n(-c2ccc(Cl)cc2)n1 [28e, 1-(3-(tert-Butyl)-1-(4-chlorophenyl)-1H-pyrazol-5-yl)-3-(2-(2-morpholinoethoxy)phenyl)urea] | > 10 µM | 
4 | CC(C)(C)c1cc(NC(=O)NCc2ccccc2OCCN2CCOCC2)n(-c2ccccc2)n1 [30d, 1-(3-(tert-Butyl)-1-phenyl-1H-pyrazol-5-yl)-3-(2-(2-morpholinoethoxy)benzyl)urea] | > 3 µM | 
5 | CC(C)(C)c1cc(NC(=O)NCc2ccccc2OCCN2CCOCC2)n(-c2ccc(Cl)cc2)n1 [30a, 1-(3-(tert-Butyl)-1-(4-chlorophenyl)-1H-pyrazol-5-yl)-3-(2-(2-morpholinoethoxy)benzyl)urea] | > 3 µM | 
6 | COc1ccc(-n2nc(C(C)(C)C)cc2NC(=O)Nc2ccccc2Oc2ccc3[nH]ncc3c2)cc1 [29d, 1-(2-((1H-Indazol-5-yl)oxy)phenyl)-3-(3-(tert-butyl)-1-(4-methoxyphenyl)-1H-pyrazol-5-yl)urea] | > 10 µM | 
7 | CC(C)(C)c1cc(NC(=O)Nc2ccc(Oc3ccc4[nH]ncc4c3)c3c2OCC=C3)n(-c2ccc([N+](=O)[O-])cc2)n1 [26f, 1-(5-((1H-Indazol-5-yl)oxy)-2H-chromen-8-yl)-3-(3-(tert-butyl)-1-(4-nitrophenyl)-1H-pyrazol-5-yl)urea] |  | IC50 (MAPKAPK2): 0.0412 ± 0.00146 µM
8 | CC(C)(C)c1cc(NC(=O)Nc2ccccc2OCCN2CCOCC2)n(-c2ccc(F)cc2)n1 [28g, 1-(3-(tert-Butyl)-1-(4-fluorophenyl)-1H-pyrazol-5-yl)-3-(2-(2-morpholinoethoxy)phenyl)urea] | > 10 µM | 
9 | CC(C)(C)c1cc(NC(=O)Nc2ccccc2Oc2ccc3[nH]ncc3c2)n(-c2ccc(Cl)cc2)n1 [29e, 1-(2-((1H-Indazol-5-yl)oxy)phenyl)-3-(3-(tert-butyl)-1-(4-chlorophenyl)-1H-pyrazol-5-yl)urea] | > 10 µM | 
10 | CC(C)(C)c1cc(NC(=O)Nc2ccc(Oc3ccc4[nH]ncc4c3)c3c2OCC=C3)n(-c2ccc(S(N)(=O)=O)cc2)n1 [26c, 4-(5-(3-(5-((1H-Indazol-5-yl)oxy)-2H-chromen-8-yl)ureido)-3-(tert-butyl)-1H-pyrazol-1-yl)benzenesulfonamide] |  | IC50 (MAPKAPK2): 0.2457 ± 0.00209 µM
11 | CC(C)(C)c1cc(NC(=O)Nc2ccc(Oc3ccc4[nH]ncc4c3)c3c2OCC=C3)n(-c2ccc(F)cc2)n1 [26e, 1-(5-((1H-Indazol-5-yl)oxy)-2H-chromen-8-yl)-3-(3-(tert-butyl)-1-(4-fluorophenyl)-1H-pyrazol-5-yl)urea] |  | IC50 (MAPKAPK2): 0.038 ± 0.00124 µM; IC50 (MAPK14/p38α; GFP-ATF2 substrate, 90 μM ATP): 0.00596 ± 1e-05 µM
12 | CC(C)(C)c1cc(NC(=O)Nc2ccccc2OCCN2CCOCC2)n(-c2ccc(Br)cc2)n1 [28f, 1-(1-(4-Bromophenyl)-3-(tert-butyl)-1H-pyrazol-5-yl)-3-(2-(2-morpholinoethoxy)phenyl)urea] | > 10 µM | 
13 | CC(C)(C)c1cc(NC(=O)Nc2ccccc2OCCN2CCOCC2)n(-c2ccc(S(N)(=O)=O)cc2)n1 [28i, 4-(3-(tert-Butyl)-5-(3-(2-(2-morpholinoethoxy)phenyl)ureido)-1H-pyrazol-1-yl)benzenesulfonamide] | > 10 µM | 
14 | CC(C)(C)c1cc(NC(=O)NCc2ccccc2OCCN2CCOCC2)n(-c2ccc(S(N)(=O)=O)cc2)n1 [30c, 4-(3-(tert-Butyl)-5-(3-(2-(2-morpholinoethoxy)benzyl)ureido)-1H-pyrazol-1-yl)benzenesulfonamide] | > 3 µM | 
15 | Cc1ccc(-n2nc(C(C)(C)C)cc2NC(=O)NCc2ccccc2OCCN2CCOCC2)cc1 [30b, 1-(3-(tert-Butyl)-1-(p-tolyl)-1H-pyrazol-5-yl)-3-(2-(2-morpholinoethoxy)benzyl)urea] | > 3 µM | 
16 | CC(C)(C)c1cc(NC(=O)Nc2ccccc2OCCN2CCOCC2)n(-c2ccc([N+](=O)[O-])cc2)n1 [28h, 1-(3-(tert-Butyl)-1-(4-nitrophenyl)-1H-pyrazol-5-yl)-3-(2-(2-morpholinoethoxy)phenyl)urea] | > 10 µM | 
17 | CC(C)(C)c1cc(NC(=O)Nc2ccccc2Oc2ccc3[nH]ncc3c2)n(-c2ccc([N+](=O)[O-])cc2)n1 [29h, 1-(2-((1H-Indazol-5-yl)oxy)phenyl)-3-(3-(tert-butyl)-1-(4-nitrophenyl)-1H-pyrazol-5-yl)urea] | > 10 µM | 
18 | CC(C)(C)c1cc(NC(=O)Nc2ccccc2OCCN2CCOCC2)n(-c2ccccc2)n1 [28b, 1-(3-(tert-Butyl)-1-phenyl-1H-pyrazol-5-yl)-3-(2-(2-morpholinoethoxy)phenyl)urea] | > 10 µM | IC50 (MAPK14/p38α; bound given in µM): > 10 µM
19 | Cc1cccc(-n2nc(C(C)(C)C)cc2NC(=O)Nc2ccccc2OCCN2CCOCC2)c1 [28c, 1-(3-(tert-Butyl)-1-(m-tolyl)-1H-pyrazol-5-yl)-3-(2-(2-morpholinoethoxy)phenyl)urea] | > 10 µM | 
20 | CC(C)(C)c1cc(NC(=O)Nc2ccccc2Oc2ccc3[nH]ncc3c2)n(-c2ccccc2)n1 [29b, 1-(2-((1H-Indazol-5-yl)oxy)phenyl)-3-(3-(tert-butyl)-1-phenyl-1H-pyrazol-5-yl)urea] | > 10 µM | IC50 (MAPK14/p38α; bound given in µM): > 10 µM
21 | Cc1ccc(-n2nc(C(C)(C)C)cc2NC(=O)Nc2ccccc2OCCN2CCOCC2)cc1 [28a, 1-(3-(tert-Butyl)-1-(p-tolyl)-1H-pyrazol-5-yl)-3-(2-(2-morpholinoethoxy)phenyl)urea] | > 10 µM | IC50 (MAPK14/p38α; bound given in µM): > 10 µM
22 | Cc1ccc(-n2nc(C(C)(C)C)cc2NC(=O)Nc2ccccc2Oc2ccc3[nH]ncc3c2)cc1 [29a, 1-(2-((1H-Indazol-5-yl)oxy)phenyl)-3-(3-(tert-butyl)-1-(p-tolyl)-1H-pyrazol-5-yl)urea] | > 10 µM | IC50 (MAPK14/p38α; bound given in µM): > 10 µM
23 | Cc1ccc(-n2nc(C(C)(C)C)cc2NC(=O)NCc2cc(F)ccc2Oc2ccc3[nH]ncc3c2)cc1 [25j, 1-(2-((1H-Indazol-5-yl)oxy)-5-fluorobenzyl)-3-(3-(tert-butyl)-1-(p-tolyl)-1H-pyrazol-5-yl)urea] |  | IC50 (MAPKAPK2): 0.00361 ± 0.00243 µM; IC50 (MAPK14/p38α; GFP-ATF2 substrate, 90 μM ATP): 0.00153 ± 7e-05 µM
24 | Cc1cccc(-n2nc(C(C)(C)C)cc2NC(=O)Nc2ccccc2Oc2ccc3[nH]ncc3c2)c1 [29c, 1-(2-((1H-Indazol-5-yl)oxy)phenyl)-3-(3-(tert-butyl)-1-(m-tolyl)-1H-pyrazol-5-yl)urea] | > 10 µM | 
25 | CC(C)(C)c1cc(NC(=O)Nc2ccccc2Oc2ccc3[nH]ncc3c2)n(-c2ccc(Br)cc2)n1 [29f, 1-(2-((1H-Indazol-5-yl)oxy)phenyl)-3-(1-(4-bromophenyl)-3-(tert-butyl)-1H-pyrazol-5-yl)urea] | > 10 µM | 
26 | Cc1ccc(-n2nc(C(C)(C)C)cc2NC(=O)Nc2ccc(Oc3ccc4[nH]ncc4c3)c3c2OCC=C3)cc1 [26a, 1-(5-((1H-Indazol-5-yl)oxy)-2H-chromen-8-yl)-3-(3-(tert-butyl)-1-(p-tolyl)-1H-pyrazol-5-yl)urea] |  | IC50 (MAPKAPK2): 0.0607 ± 0.00231 µM
27 | CC(C)(C)c1cc(NC(=O)Nc2ccccc2Oc2ccc3[nH]ncc3c2)n(-c2ccc(F)cc2)n1 [29g, 1-(2-((1H-Indazol-5-yl)oxy)phenyl)-3-(3-(tert-butyl)-1-(4-fluorophenyl)-1H-pyrazol-5-yl)urea] | > 10 µM | 
28 | COc1ccc(-n2nc(C(C)(C)C)cc2NC(=O)Nc2ccccc2OCCN2CCOCC2)cc1 [28d, 1-(3-(tert-Butyl)-1-(4-methoxyphenyl)-1H-pyrazol-5-yl)-3-(2-(2-morpholinoethoxy)phenyl)urea] | > 10 µM | 
